Measured values taken from US11311522B1 (Cavion, Inc., priority 2018, dated 2022).

Molecular target: human peroxisome proliferator-activated receptor gamma (PPARγ) (Homo sapiens, UniProt P37231)
Assay: PPARγ binding

human peroxisome proliferator-activated receptor gamma (PPARγ), sequence (P37231 whole entry): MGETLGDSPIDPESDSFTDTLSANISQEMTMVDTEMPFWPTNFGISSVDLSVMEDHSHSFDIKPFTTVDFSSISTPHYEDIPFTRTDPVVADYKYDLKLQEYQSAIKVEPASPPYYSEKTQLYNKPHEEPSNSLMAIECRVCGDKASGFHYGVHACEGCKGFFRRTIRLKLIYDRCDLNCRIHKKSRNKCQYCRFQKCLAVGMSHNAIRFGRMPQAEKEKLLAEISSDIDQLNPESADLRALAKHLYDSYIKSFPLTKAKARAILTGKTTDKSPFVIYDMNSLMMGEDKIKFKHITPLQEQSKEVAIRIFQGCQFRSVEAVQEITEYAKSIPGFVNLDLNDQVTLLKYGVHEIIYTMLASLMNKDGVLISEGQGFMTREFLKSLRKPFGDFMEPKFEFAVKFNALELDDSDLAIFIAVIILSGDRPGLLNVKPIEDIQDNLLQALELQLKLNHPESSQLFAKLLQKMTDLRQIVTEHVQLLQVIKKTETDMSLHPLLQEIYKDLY

## C=C(C)c1ccc(CC(=O)N[C@H](C)c2ccc(OCC(F)(F)F)cn2)cc1 [M01]
  inhibition at 10 µM: 54%
